Test results as given in EP0306455A1, “Cyclodextrin complexes of bis-biguanido hexane compounds” (WARNER-LAMBERT COMPANY, priority 1987, dated 1989).
Counter-ions that a name gives are not always drawn. Like-named read-outs stand apart in the source and are kept apart here.

How the values were obtained:
S.mutans = assay: Anti-microbial activity (MIC and MLC); type: cell-based; details: complex compared with uncomplexed chlorhexidine digluconate
From the text: (§1) A comparison of the anti-microbial activity of chlorhexidine digluconate and beta-cyclodextrin complexed chlorhexidine digluconates were compared against four microorganisms, C.albicans, S. anaguis, S.mutans and A.viscosus.

S. anaguis = assay: Anti-microbial activity (MIC and MLC); type: cell-based; details: complex compared with uncomplexed chlorhexidine digluconate
From the text: as §1

A.viscosus = assay: Anti-microbial activity (MIC and MLC); type: cell-based; details: complex compared with uncomplexed chlorhexidine digluconate
From the text: as §1

C.albicans = assay: Anti-microbial activity (MIC and MLC); type: cell-based; details: complex compared with uncomplexed chlorhexidine digluconate
From the text: as §1

[1] = Method: Free chlorhexidine has a water solubility of about 8 mg. per 100 ml. of water at room temperature.
[2] = background statement, temperature not given; dihydrochloride; cited from earlier work

Compound	minimum inhibitory concentration (MIC) (S.mutans)	minimum lethal concentration (MLC) (S.mutans)	minimum inhibitory concentration (MIC) (S. anaguis)	minimum lethal concentration (MLC) (S. anaguis)	minimum inhibitory concentration (MIC) (A.viscosus)	minimum lethal concentration (MLC) (A.viscosus)	minimum inhibitory concentration (MIC) (C.albicans)	minimum lethal concentration (MLC) (C.albicans)	water solubility ([1]; water)	water solubility [2]	water solubility [1]
N=C(NCCCCCCNC(=N)NC(=N)Nc1ccc(Cl)cc1)NC(=N)Nc1ccc(Cl)cc1 [chlorhexidine digluconate]	similar	similar	similar	similar	similar	similar	similar	similar	–	–	–
[H]/N=C(\N/C(=N/[H])NCCCCCCNC(=N)NC(=N)Nc1ccc(Cl)cc1)Nc1ccc(Cl)cc1 [chlorhexidine dihydrochloride]	–	–	–	–	–	–	–	–	60 mg. per 100 ml. of water	~60 mg per 100 ml of water	–
[H]/N=C(\N/C(=N/[H])NCCCCCCNC(=N)NC(=N)Nc1ccc(Cl)cc1)Nc1ccc(Cl)cc1 [chlorhexidine, 1,6-di(p-chlorophenylbiguanides) hexane]	–	–	–	–	–	–	–	–	8 mg. per 100 ml. of water	–	about 8 mg. per 100 ml. of water
